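Cells were grown in 96-well plates and exposed to each compound for 48 hours at five concentrations; endpoints were interpolated linearly between bracketing concentrations, or set to the highest concentration if not reached. GI50: concentration for 50% inhibition of growth. TGI marks complete inhibition of growth.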
Experiments:
Assay in all cases: NCI tumour cell line growth inhibition, 48 h
MDA-N = test system: MDA-N
BT-549 breast = test system: BT-549 breast
HS 578T breast = test system: HS 578T breast
SF-539 CNS = test system: SF-539 CNS
ACHN renal = test system: ACHN renal
LXFL 529 NSCLC = test system: LXFL 529 NSCLC
P388/ADR leukemia = test system: P388/ADR leukemia
SN12K1 renal = test system: SN12K1 renal
P388 leukemia = test system: P388 leukemia

Row | SMILES | TGI (MDA-N) | TGI (BT-549 breast) | TGI (HS 578T breast) | TGI (SF-539 CNS) | TGI (ACHN renal) | TGI (P388/ADR leukemia) | TGI (SN12K1 renal) | TGI (P388 leukemia) | other results
1 | Cc1ccc(Cl)cc1N=NC(=O)NNc1cc(Cl)ccc1C | > 100 µM | 43.9 µM | 54.8 µM |  |  |  |  |  | 
2 | CCOC(=O)NC(Nc1cc(Cl)ccc1OC)(C(F)(F)F)C(F)(F)F | > 100 µM | > 100 µM | > 100 µM | > 100 µM | > 100 µM |  |  |  | 
3 | COc1cccc2c1C(=O)c1c(O)c3c(c(O)c1C2=O)C[C@@](O)(C(=O)COC(=O)c1ccccc1)C[C@@H]3OC1CC(N)C(O)C(C)O1 (stereo partly specified) |  | 2.32 µM |  | 1.13 µM | 0.457 µM |  |  |  | GI50 (BT-549 breast): 0.7 µM; GI50 (SF-539 CNS): 0.254 µM; GI50 (ACHN renal): 0.0925 µM
4 | O=C(NN1C(=O)C(Cl)C1c1cccc([N+](=O)[O-])c1)c1ccccc1O (stereo unspecified) |  |  |  | > 100 µM |  |  |  |  | TGI (LXFL 529 NSCLC): > 100 µM
5 | CCOC(=O)/C=C/c1c(C)[nH]c(=O)[nH]c1=O |  |  |  | > 250 µM |  | > 158 µM | > 250 µM | > 141 µM | 
6 | C/C(=N\NC(=S)N1CCC(N2CCCCC2)CC1)c1ccccn1 | 5.9 µM |  | 31.7 µM | 8.36 µM | 5.65 µM |  |  |  | TGI (LXFL 529 NSCLC): 13.6 µM
7 | O=C1C(CO)=C[C@H](O)[C@H]2O[C@@H]12 |  |  |  | > 562 µM |  | 225 µM | 278 µM | 195 µM | 
8 | c1ccc2c(c1)NCc1cc3ccccc3nc1O2 |  |  |  | > 100 µM |  | > 100 µM | > 100 µM | > 100 µM | 
9 | c1ccc2c(c1)c1ccccc1n2Cn1c2ccccc2c2ccccc21 | > 100 µM | > 100 µM |  |  | > 100 µM |  |  |  | 
10 | COc1cc(-c2ccc(N=Nc3ccc4c(S(=O)(=O)O)cc(S(=O)(=O)O)c(N)c4c3O)c(OC)c2)ccc1N=Nc1ccc2c(S(=O)(=O)O)cc(S(=O)(=O)O)c(N)c2c1O |  |  |  | > 100 µM |  | > 100 µM | > 100 µM | > 100 µM | 
11 | O=C1CCC[C@H]2O[C@@H](COC(=O)c3ccccc3)C[C@H]2O1 | > 100 µM |  | > 100 µM | > 100 µM | > 100 µM |  |  |  | 
12 | c1cc2c3c(c1)c1cc4c(cc1c[n+]3CC2)OCO4 |  |  |  | 15.4 µM |  | > 225 µM | 12.2 µM | 4.22 µM | 
13 | O=C(N/N=C\c1cccc2ccccc12)Nc1ccccc1 | > 100 µM | > 100 µM | > 100 µM |  |  |  |  |  | 

Source: PubChem BioAssay (NCI)
